For series [1], the system named is C32 cell line. Details: method as in PMID 33572631. Particulars: cited from earlier work.
Series [2] relates to SK-OV-3 cells. In words: Plasma membrane permeability (DNA-histone complexes in culture medium). In kind it is cell-based, human. Particulars: SK-OV-3, 24 h, with 5 µM cyclosporin A added 30 min before. The procedure: Fragmentation of genomic DNA was determined by means of the Cell Death Detection ELISAPLUS kit (Roche, Basel, Switzerland). This method rests on the immunoenzymatic detection of DNA–histone complexes in the cytoplasmic cell fraction or cell culture supernatants. Cells were plated and cultured in 96-well plates (Greiner Bio-One) at the initial density of 5 × 10^3 cells per well in 100 µL of culture medium. Cells were allowed to attach and grow for 1 day prior to the addition of test reagents. Then, the media were replaced with the working solutions (3 µM, 10 µM, 30 µM), and cells were exposed to compounds 2–6 for 24 h. In some cases, 5 µM cyclosporin A (CsA, an inhibitor of the mitochondrial permeability transition) was added to the cells 30 min before treatment with the betulin derivative. Subsequently, cells were incubated concomitantly with both compounds. […] In one experiment, the presence of mono- and oligonucleosomes was determined in 20 µL samples of centrifuged culture supernatants (media) to detect the permeability of plasma membrane (considered as an indicator of cell necrosis). […] Absorbance was measured at 405 nm and 490 nm (reference wavelength), and the enrichment factor of the cytoplasmic (or supernatant) fraction in mono- and oligonucleosomes was calculated according to the formula: EF = absorbance of sample cells/absorbance of control cells.

Series [3] has as its system SK-OV-3 cells. Nature of the series: LDH release assay, SK-OV-3. In kind it is cell-based, human. The conditions noted are these: SK-OV-3, 24 h, 10 μM and 30 μM. The procedure: In order to evaluate the cytotoxic effect, the release of LDH into the culture medium using the In Vitro Toxicology Assay Kit, Lactic Dehydrogenase Based (TOX7; Sigma Aldrich) was assessed. SK-OV-3 and OVCAR-3 cells were plated and cultured in 96-well plates (Greiner Bio-One) at the initial density of 5 × 10^3 cells per well in 100 µL of culture medium. The density of the cells was determined in the same manner as in the SRB assay. After 24 h, the media were replaced with the working solutions, which contained appropriate test compounds at concentrations of 3 μM, 10 μM, 30 μM, and control medium (0.2% DMSO). Cells were exposed to the test substances for 24 h. The background control comprised wells without cells with only control medium. To determine the maximal LDH release (high control), half of the control cultures were treated with lysis buffer. Wells with untreated cells were used as the low control of the assay. LDH activity in media was assessed according to the manufacturer’s protocol. The absorbance was measured at wavelengths of 490 nm and 690 nm (background), and the percentage of released enzyme was calculated for cells growing in the presence of compounds according to the formula:Cytotoxicity [%] = [(AT − AL)/(AH − AL)] × 100 where AT is the absorbance of treated wells; AL is low control; and AH is high control (maximal LDH release).
Cytotoxicity was expressed as a percentage of the released LDH calculated according to the difference between the absorbance of the treated and low control wells divided by the difference between the absorbance of the high control and low control wells.
On the technique in general: LDH leaks from cells whose membrane has failed.

For series [4], the system named is T47D cell line. Also on record: method as in PMID 33572631. Particulars: cited from earlier work.

As for `C#CC(=O)OC[C@]12CC[C@@H](/C(C)=C/P(=O)(OCC)OCC)C1C1CCC3[C@@]4(C)CC[C@H](O)C(C)(C)C4CC[C@@]3(C)[C@]1(C)CC2` (stereo partly shown) [Compound 6, E-29-diethoxyphosphoryl-28-O-propynoylbetulin], the concentration for half-maximal inhibition (IC50) was 600 nM in series [1] and 700 nM in series [4]. Moreover, the “effect of CsA on compound-induced cell death, plasma membrane permeability” value in series [2] was “almost completely prevented”. In series [3], the “cytotoxicity (released LDH)” value is listed as “most cytotoxic agent”.

By IC50 is commonly meant the midpoint of a concentration-inhibition curve.

(Values after paper PMC10671498, “Antiproliferative and Cytotoxic Properties of Propynoyl Betulin Derivatives against Human Ovarian Cancer Cells: In Vitro Studies” (International Journal of Molecular Sciences, 2023).)
